Laboratory results taken from patent US11446299B2, “Carbazole EHop-016 derivatives as anticancer and anti-migratory agents” (UNIVERSITY OF PUERTO RICO, priority 2017, dated 2022).
Like-named read-outs stand apart in the source and are kept apart here.

What was measured:
MDA-MB-231 cancer cells = test: Sulforhodamine B (SRB) growth inhibition assay; type: cell-based, human; settings: for GI50: Homo sapiens, MDA-MB-231, SRB assay, 24 h treatment, mean of triplicate, SD <10%; for anti-proliferative activity / cytotoxicity in words: MDA-MB-231, concentrations ≤50 μM
Protocol: (§1) Various compounds were tested to evaluate the dose response curve for effect on MCF-7 cancer cells and MDA-MB-231 cancer cells. MCF-7 and MDA-MB-231 cells were cultured in 10% Minimum Essential Medium Eagle (MEME) supplemented with Earle's Balanced Salt Solution (EBSS), Non-essential Amino acids (NEAA), Sodium pyruvate, Pen/Strep, L-glutamine and Fetal Bovine Serum (FBS) at 37° C. in 5% CO2.
(§2) Sulforhodamine B (SRB) Assay: A stock solution of compounds was prepared at 50 mM in 100% DMSO. For cells preparation, a flask of 75 cm^2 or 25 cm^2 were used for 2.6×10^5 cells or 1.44×10^5 cells respectively with an 80-90% of confluence. Cells were washed with PBS and trypsinized. The concentration of cells was determined using a 1:2 dilutions with Trypan Blue and a hemocytometer. After cell count, the concentration was adjusted to have a 1.9×10^4 cells/well. Approximately […] of cells suspension, compounds, control positive and control negative were added in triplicates to a 96 well plate. Positive controls used were ellipticine, doxorubicin, and/or vincristine, and the negative control was DMSO 0.1%. All compounds at 50, 25, 12.5, 6.3, and 1.6 μM were incubated with cells at 37° C. for 24 hrs. For fixation, cold TCA 50% was used and incubated at 4° C. for 1 hr. Wells were washed and dried prior to tincture with 100 μL of SRB 0.4%. To remove excess of SRB, acetic acid was used. For analysis, TRIS-BASE Solution (pH=10.5) was used and shacked prior to reading using an ELISA reader at 510 nm and the software SoftMax Pro 4.8.
(§3) For each compound, 50% growth inhibition (GI50) was calculated from Sigmoidal dose-response curves (variable-slope) that were generated with data obtained from experiments carried out in triplicates (GI50 values were generated with GraphPad Prism V. 6.02, GraphPad Software, Inc.). The results are presented in FIGS. 4A-4B (MCF-7 cancer cells) and FIGS. 5A-5B (MDA-MB-231 cancer cells).

[1] = system: MDA-MB-231 breast cancer cells; test: Wound healing assay (scratch method), cell migration; type: cell-based, human; settings: Homo sapiens, MDA-MB-231; for activity at 10 µM: percent relative migration at 10 μM after 24 h, relative to control; for inhibition at 10 µM: read-out: anti-migratory activity (inhibition of migration)
Protocol: The experimental data of anti-migratory activities for compounds 3a-d and 4a-f were obtained using MDA-MB-231 breast cancer cells. For the migration assay, a wound-healing assay (scratch-wound assay) was utilized in the presence of vehicle (0.02% DMSO) or compounds at […].
Prior to assays, cells were grown until 80-90% confluence was observed. A 75 cm2 flask was used for 2.6×10^5 cells/mL in 10 mL and for a 25 cm2 flask 1.44×10^5 cells/mL in 5 mL. The cells were washed with PBS to remove all traces of FBS. 2 mL was added for a 25 cm2 flasks or 4 mL for a 75 cm2 flasks trypsin, and incubated 5-10 min at 37° C. At the end of the incubation time, cells were re-suspended and counted with hemocytometer using 1:2 dilutions with Trypan blue. Subsequently, cell viability was calculated. In a 12 multiwell plate, the plastic pattern was used to draw a fine space with a fine marker on the bottom of the plate. Cells were seeded at 1.5-2.2×10^5 cells/mL in 1 mL and incubated for 24 h. Cells were then rinsed with PBS and incubated in starving media (0.5% FBS) overnight. All controls and drugs were tested in triplicate. The negative control for each drug was prepared according to the drug's DMSO concentration.
Drugs were diluted and the final concentration at each well […]. The wound was made using a sterile pipette tip of […]. Cells were then rinsed very gently with media without FBS and media with negative controls was added. After a 24 h incubation, the gap distance was evaluated using the software Lumera Infinity Analyze 6.4.0. Pictures were taken at 0, 8, 12 and 24 h using a 10× objective. The percentage of migration was calculated using the following formula: 100−[(X0/X0)]*100 for time 0 h measurements 100−[(X24/X0)]*100 for time 24 h measurements
The experimental data of anti-migratory activities for compounds 3a-d and 4a-f were obtained using MDA-MB-231 breast cancer cells, and results are summarized in Table 1. For the migration assay, we used a wound-healing assay (scratch-wound assay)^22 in the presence of vehicle (0.02% DMSO) or compounds at 10 μM (FIG. 6). […] However, compounds 3a, 3c, and 4a-f inhibited migration in the range of 1-9%.
An additional example of a compounds with modification in building block C was synthesized via a different procedure as represented in Scheme 2B (see FIG. 11B). The compounds that were synthesized were tested for their biological activity by determination of their cytotoxicity in MDA-MB-231 breast cancer cell lines as shown in Table 5. The cytotoxicity's are expressed as IC50, which indicates the concentration at which 50% of the cell growth is inhibited. Furthermore, the inhibition of cell migration was tested at a concentration of 0.2×IC50, or, when the IC50 was >50 μM at a concentration of 10 μM. For comparison, Table 5 also includes the Lipinski and drug-likeness parameters as calculated via the MolSoft platform.
Migration assays were performed via the Scratch Method as described previously.

MCF-7 cancer cells = test: Sulforhodamine B (SRB) growth inhibition assay; type: cell-based; settings: Homo sapiens, MCF7, 24 h treatment, mean of triplicate, SD <10%
Protocol: as §1, §2, §3

In the case of `CCn1c2ccccc2c2cc(NC(=O)c3cccnc3N3CCN(C(C)=O)CC3)ccc21` [Compound 3a, 2-(4-acetylpiperazin-1-yl)-N-(9-ethyl-9H-carbazol-3-yl)nicotinamide], the GI50 (MDA-MB-231 cancer cells) is reported as > 50 µM, the activity at 10 µM [1] is reported as 93 ± 11.7% and the GI50 (MCF-7 cancer cells) is reported as > 50 µM.

In the case of `CCn1c2ccccc2c2cc(NC(=O)c3cccnc3N3CCOCC3)ccc21` [Compound 3b, N-(9-ethyl-9H-carbazol-3-yl)-2-morpholinonicotinamide], the GI50 (MDA-MB-231 cancer cells) is reported as > 50 µM, the “anti-proliferative activity / cytotoxicity in words” value (MDA-MB-231 cancer cells) is reported as “no anti-proliferative activity” and the “anti-proliferative activity in words” value (MDA-MB-231 cancer cells; MDA-MB-231 at <50 pM as printed) is reported as “minor anti-proliferative activity”. The inhibition at 10 µM [1] was 32%, the inhibition at 10 µM ([1]; at 10 μM, 24 h) was 32% and the activity at 10 µM [1] was 68 ± 10.5%. The GI50 (MCF-7 cancer cells) was > 50 µM.

`CCn1c2ccccc2c2cc(NC(=O)c3cccnc3N3CCN(c4ccccc4)CC3)ccc21` [Compound 3c, N-(9-ethyl-9H-carbazol-3-yl)-2-(4-phenylpiperazin-1-yl)nicotinamide] was tested, and the GI50 (MDA-MB-231 cancer cells) was > 50 µM, the activity at 10 µM [1] was 99 ± 1.89% and the GI50 (MCF-7 cancer cells) was > 50 µM.

For `CCn1c2ccccc2c2cc(NC(=O)c3cccnc3NCCCN3CCOCC3)ccc21` [Compound 3d], the GI50 (MDA-MB-231 cancer cells) was 19 µM, the inhibition at 10 µM [1] was 24% and the inhibition at 10 µM ([1]; at 10 μM, 24 h) was 24%. The activity at 10 µM [1] was 76 ± 7.87% and the GI50 (MCF-7 cancer cells) was > 50 µM.

With `CCn1c2ccccc2c2cc(Nc3ncccc3C(=O)NCCCN3CCOCC3)ccc21` [Compound 4a, 2-(9-ethyl-9H-carbazol-3-ylamino)-N-(3-norpholinopropyl)nicotinamide] the GI50 (MDA-MB-231 cancer cells) was > 50 µM, the activity at 10 µM [1] was 99 ± 1.28% and the GI50 (MCF-7 cancer cells) was 28 µM.

For `CCn1c2ccccc2c2cc(Nc3ncccc3C(=O)NCCN3CCN(C(=O)OC(C)(C)C)CC3)ccc21` [Compound 4b], the GI50 (MDA-MB-231 cancer cells) was > 50 µM, the activity at 10 µM [1] was 95 ± 9.8% and the GI50 (MCF-7 cancer cells) was > 50 µM.

`CCn1c2ccccc2c2cc(Nc3ncccc3C(=O)NCCCn3ccnc3)ccc21` [Compound 4c, N-(3-(1H-imidazol-1-yl)propyl)-2-((9-ethyl-9H-carbazol-3-yl)amino)nicotinamide] was tested, and the GI50 (MDA-MB-231 cancer cells) was > 50 µM, the activity at 10 µM [1] was 93 ± 2.01% and the GI50 (MCF-7 cancer cells) was 27 µM.

Work on `CCN(CC)CCCC(C)NC(=O)c1cccnc1Nc1ccc2c(c1)c1ccccc1n2CC` (stereo not shown) [Compound 4d, N-(4-Diethylamino-1-methyl-butyl)-2-(9-ethyl-9H-carbazol-3-ylamino)-nicotinamide] yielded a GI50 (MDA-MB-231 cancer cells) of 18 µM, an activity at 10 µM [1] of 91 ± 14.1% and a GI50 (MCF-7 cancer cells) of 13 µM.

`CCN(CC)CCNC(=O)c1cccnc1Nc1ccc2c(c1)c1ccccc1n2CC` [Compound 4e, N-(2-(diethylamino)ethyl)-2-((9-ethyl-9H-carbazol-3-yl)amino)nicotinamide] was tested, and the GI50 (MDA-MB-231 cancer cells) was 18 µM, the activity at 10 µM [1] was 99 ± 4.12% and the GI50 (MCF-7 cancer cells) was 14 µM.

For `CCn1c2ccccc2c2cc(Nc3ncccc3C(=O)Nc3cc(OC)c(OC)c(OC)c3)ccc21` [Compound 4f, 2-((9-ethyl-9H-carbazol-3-yl)amino)-N-(3,4,5-trimethoxyphenyl)nicotinamide], the GI50 (MDA-MB-231 cancer cells) was > 50 µM, the activity at 10 µM [1] was 92 ± 8.55% and the GI50 (MCF-7 cancer cells) was > 50 µM.

`CCn1c2ccccc2c2cc(Nc3ncccc3NC(=O)CCN3CCCCC3)ccc21` [Compound 7a, N-[2-(9-Ethyl-9H-carbazol-3-ylamino)-pyridin-3-yl]-3-piperidin-1-yl-propionamide] showed a GI50 (MDA-MB-231 cancer cells) of 23 µM, an activity at 10 µM [1] of 99 ± 4.29% and a GI50 (MCF-7 cancer cells) of 15 µM.

`CCn1c2ccccc2c2cc(Nc3ncccc3NC(=O)c3cccnc3)ccc21` [Compound 7b, N-(2-((9-ethyl-9H-carbazol-3-yl)amino)pyridin-3-yl)nicotinamide] gave a GI50 (MDA-MB-231 cancer cells) of 31 µM, an activity at 10 µM [1] of 81 ± 11.1% and a GI50 (MCF-7 cancer cells) of 41 µM.

In the case of `CCn1c2ccccc2c2cc(Nc3ncccc3NCC(=O)N3CCOCC3)ccc21` [Compound 7c], the GI50 (MDA-MB-231 cancer cells) is reported as > 50 µM, the “anti-proliferative activity / cytotoxicity in words” value (MDA-MB-231 cancer cells) is reported as “minimal cytotoxicity” and the activity at 10 µM [1] is reported as 81 ± 8.27%. For the same molecule, the GI50 (MCF-7 cancer cells) was 23 µM.

`CCn1c2ccccc2c2cc(C(=O)Nc3cccnc3NCCCN3CCOCC3)ccc21` [Compound 11a, 9-Ethyl-9H-carbazole-3-carboxylic Acid [2-(3-morpholin-4-yl-propylamino)-pyridin-3-yl]-amide] was tested, and the GI50 (MDA-MB-231 cancer cells) was 39 µM, the activity at 10 µM [1] was 89 ± 10.1% and the GI50 (MCF-7 cancer cells) was 32 µM.

`CCn1c2ccccc2c2cc(NC(=O)c3nccnc3C(=O)NCCN3CCOCC3)ccc21` [Compound 14a, N^2-(9-ethyl-9H-carbazol-3-yl)-N^3-(2morpholinoethyl)pyrazine-2,3-dicarboxamide] was tested, and the GI50 (MDA-MB-231 cancer cells) was > 50 µM, the activity at 10 µM [1] was 91 ± 5.23% and the GI50 (MCF-7 cancer cells) was > 50 µM.

With `CCn1c2ccccc2c2cc(NC(=O)c3nccnc3C(=O)NCCCN3CCOCC3)ccc21` [Compound 14b, N^2-(9-ethyl-9H-carbazol-3-yl)-N^3-(3-morpholinopropyl)pyrazine-2,3-dicarboxamide] the GI50 (MDA-MB-231 cancer cells) was > 50 µM, the activity at 10 µM [1] was 94 ± 5.87% and the GI50 (MCF-7 cancer cells) was > 50 µM.

`CCn1c2ccccc2c2cc(NC(=O)c3nccnc3C(=O)NCCCn3ccnc3)ccc21` [Compound 14c, Pyrazine-2,3-dicarboxylic acid 2-[(9-ethyl-9H-carbazol-3-yl)-amide]-3-[(3-imidazol-1-yl-propyl)-amide]] was tested, and the GI50 (MDA-MB-231 cancer cells) was > 50 µM, the activity at 10 µM [1] was 99 ± 4.5% and the GI50 (MCF-7 cancer cells) was > 50 µM.

With `CCn1c2ccccc2c2cc(NC(=O)c3nccnc3C(=O)NCCOC)ccc21` [Compound 14d, N^2-(9-ethyl-9H-carbazol-3-yl)-N^3-(2-methoxyethyl)pyrazine-2,3-dicarboxamide] the GI50 (MDA-MB-231 cancer cells) was > 50 µM, the activity at 10 µM [1] was 100 ± 5.2% and the GI50 (MCF-7 cancer cells) was > 50 µM.

`CCn1c2ccccc2c2cc(NC(=O)c3ccccc3C(=O)NCCOC)ccc21` [Compound 14e, N^1-(9-ethyl-9H-carbazol-3-yl)-N^2-(2-methoxyethyl)phthalamide] was tested, and the GI50 (MDA-MB-231 cancer cells) was > 50 µM, the activity at 10 µM [1] was 99 ± 2.57% and the GI50 (MCF-7 cancer cells) was > 50 µM.

For `CCn1c2ccccc2c2cc(NC(=O)c3ccccc3C(=O)NCCO)ccc21` [Compound 14f, N^1-(9-ethyl-9H-carbazol-3-yl)-N^2-(2-hydroxyethyl)phthalamide], the GI50 (MDA-MB-231 cancer cells) was > 50 µM, the activity at 10 µM [1] was 98 ± 1.83% and the GI50 (MCF-7 cancer cells) was > 50 µM.

With `CCn1c2ccccc2c2cc(NC(=O)C3CCCCC3C(=O)NCCN3CCOCC3)ccc21` (stereo not shown) [Compound 14g] the GI50 (MDA-MB-231 cancer cells) was > 50 µM, the activity at 10 µM [1] was 99 ± 1.63% and the GI50 (MCF-7 cancer cells) was > 50 µM.

For `CCn1c2ccccc2c2cc(NC(=O)C3CCCCC3C(=O)NCCCN3CCOCC3)ccc21` (stereo not shown) [Compound 14h, cyclohexane-1,2-dicarboxylic acid 1-[(9-ethyl-9H-carbazol-3-yl)-amide]-2-[(3-morpholin-4-yl-propyl)-amide]], the GI50 (MDA-MB-231 cancer cells) was > 50 µM, the activity at 10 µM [1] was 100 ± 0.56% and the GI50 (MCF-7 cancer cells) was > 50 µM.
